Test results from PubChem BioAssay AID252 (DTP/NCI, 2004).
“And” between values parts separate entries of the source, which are not always exact repeats. Equal entries are not always repeated. Toxic doses and inconclusive results are not listed.

Test system: BDF1 mice, intracerebral L1210 leukemia, survival T/C
Assay: NCI In Vivo Anticancer Drug Screen. Data for tumor model L1210 Leukemia (intracerebral) in B6D2F1 (BDF1) mice
Conditions: higher = longer survival
In short: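 Readout is the T/C ratio: survival of compound-treated animals over that of vehicle-treated controls, in mice bearing transplantable tumour.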

[1] = endpoint: mean survival time, dose: 2.5 mg/kg/injection, schedule: Q01DX009 (ip), vehicle: saline
[2] = endpoint: mean survival time, dose: 5.0 mg/kg/injection, schedule: Q01DX009 (ip), vehicle: saline

With `O=NN(CCCl)C(=O)Nc1cccc(Cl)c1` as the molecule, how does the T/C (endpoint: mean survival time, dose: 44.0 mg/kg/injection, schedule: Q01DX001 (ip), vehicle: carboxymethylcellulose (CMC)) read?
Its T/C is 102 % of control.

What about the T/C (endpoint: mean survival time, dose: 67.0 mg/kg/injection, schedule: Q01DX001 (ip), vehicle: carboxymethylcellulose (CMC)) of the same molecule?
The T/C was 100 % of control.

What about the T/C (endpoint: mean survival time, dose: 77.0 mg/kg/injection, schedule: Q01DX001 (ip), vehicle: carboxymethylcellulose (CMC)) of the same molecule?
Its T/C is 107 % of control.

What about the T/C (endpoint: mean survival time, dose: 100.0 mg/kg/injection, schedule: Q01DX001 (ip), vehicle: carboxymethylcellulose (CMC)) of the same molecule?
The T/C was 98 % of control.

And the T/C (endpoint: mean survival time, dose: 117.0 mg/kg/injection, schedule: Q01DX001 (ip), vehicle: carboxymethylcellulose (CMC))?
The T/C was 103 % of control.

And the T/C (endpoint: mean survival time, dose: 175.0 mg/kg/injection, schedule: Q01DX001 (ip), vehicle: carboxymethylcellulose (CMC))?
Its T/C is 108 % of control.

And the T/C (endpoint: mean survival time, dose: 252.0 mg/kg/injection, schedule: Q01DX001 (ip), vehicle: carboxymethylcellulose (CMC))?
Its T/C is 103 % of control.

What does the source list for `O=NN(CCCl)C(=O)NC1CCC(NC(=O)N(CCCl)N=O)CC1` (stereo unspecified)?
T/C (endpoint: mean survival time, dose: 38.0 mg/kg/injection, schedule: Q01DX001 (oral), vehicle: other): 119 % of control; T/C (endpoint: mean survival time, dose: 48.0 mg/kg/injection, schedule: Q01DX001 (ip), vehicle: other): 151 % of control and 157 % of control; T/C (endpoint: mean survival time, dose: 84.0 mg/kg/injection, schedule: Q01DX001 (oral), vehicle: other): 154 % of control; T/C (endpoint: mean survival time, dose: 96.0 mg/kg/injection, schedule: Q01DX001 (ip), vehicle: other): 276 % of control and 370 % of control; T/C (endpoint: mean survival time, dose: 127.0 mg/kg/injection, schedule: Q01DX001 (ip), vehicle: carboxymethylcellulose (CMC)): 232 % of control; T/C (endpoint: mean survival time, dose: 171.0 mg/kg/injection, schedule: Q01DX001 (oral), vehicle: other): 209 % of control; T/C (endpoint: mean survival time, dose: 191.0 mg/kg/injection, schedule: Q01DX001 (ip), vehicle: other): 291 % of control and 389 % of control; T/C (endpoint: mean survival time, dose: 255.0 mg/kg/injection, schedule: Q01DX001 (ip), vehicle: carboxymethylcellulose (CMC)): 307 % of control; T/C (endpoint: mean survival time, dose: 319.0 mg/kg/injection, schedule: Q01DX001 (oral), vehicle: other): 198 % of control and 260 % of control; T/C (endpoint: mean survival time, dose: 383.0 mg/kg/injection, schedule: Q01DX001 (ip), vehicle: other): 154 % of control; T/C (endpoint: mean survival time, dose: 510.0 mg/kg/injection, schedule: Q01DX001 (ip), vehicle: carboxymethylcellulose (CMC)): 154 % of control; T/C (endpoint: mean survival time, dose: 638.0 mg/kg/injection, schedule: Q01DX001 (oral), vehicle: other): 268 % of control and 398 % of control

What does the source list for `CC(Cl)CNC(=O)N(CC(C)Cl)N=O` (stereo unspecified)?
T/C (endpoint: mean survival time, dose: 250.0 mg/kg/injection, schedule: Q01DX001 (ip), vehicle: carboxymethylcellulose (CMC)): 107 % of control; T/C (endpoint: mean survival time, dose: 500.0 mg/kg/injection, schedule: Q01DX001 (ip), vehicle: carboxymethylcellulose (CMC)): 112 % of control; T/C (endpoint: mean survival time, dose: 1000.0 mg/kg/injection, schedule: Q01DX001 (ip), vehicle: carboxymethylcellulose (CMC)): 204 % of control

Which T/C (endpoint: mean survival time, dose: 0.02 mg/kg/injection, schedule: Q01DX009 (ip), vehicle: saline) does the source give for `O=C1C(N2CC2)=C(N2CC2)C(=O)C(N2CC2)=C1N1CC1` here?
Its T/C is 102 % of control.

What about the T/C (endpoint: mean survival time, dose: 0.04 mg/kg/injection, schedule: Q01DX009 (ip), vehicle: saline) of the same molecule?
The T/C was 120 % of control.

What about the T/C (endpoint: mean survival time, dose: 0.16 mg/kg/injection, schedule: Q01DX009 (ip), vehicle: saline) of the same molecule?
Its T/C is 112 % of control.

How did the T/C (endpoint: mean survival time, dose: 20.0 mg/kg/injection, schedule: Q01DX001 (ip), vehicle: other) turn out when `CC1CCC(NC(=O)N(CCF)N=O)CC1` (stereo unspecified) was run?
The T/C was 117 % of control.

And the T/C (endpoint: mean survival time, dose: 44.0 mg/kg/injection, schedule: Q01DX001 (ip), vehicle: other)?
The T/C was 212 % of control.

And the T/C (endpoint: mean survival time, dose: 66.0 mg/kg/injection, schedule: Q01DX001 (ip), vehicle: other)?
Its T/C is 341 % of control.

What does the source list for `N=c1ccn2c(n1)OC1C(O)C(CO)OC12` (stereo unspecified)?
T/C (endpoint: mean survival time, dose: 50.0 mg/kg/injection, schedule: Q01DX009 (oral), vehicle: saline): 220 % of control; T/C (endpoint: mean survival time, dose: 50.0 mg/kg/injection, schedule: Q08DX009 (ip), vehicle: water): 175 % of control; T/C (endpoint: mean survival time, dose: 100.0 mg/kg/injection, schedule: Q01DX009 (oral), vehicle: saline): 228 % of control; T/C (endpoint: mean survival time, dose: 100.0 mg/kg/injection, schedule: Q01DX009 (oral), vehicle: water): 186 % of control; T/C (endpoint: mean survival time, dose: 100.0 mg/kg/injection, schedule: Q08DX009 (ip), vehicle: water): 196 % of control; T/C (endpoint: mean survival time, dose: 200.0 mg/kg/injection, schedule: Q01DX009 (oral), vehicle: saline): 255 % of control; T/C (endpoint: mean survival time, dose: 200.0 mg/kg/injection, schedule: Q01DX009 (oral), vehicle: water): 201 % of control; T/C (endpoint: mean survival time, dose: 200.0 mg/kg/injection, schedule: Q08DX009 (ip), vehicle: water): 215 % of control and 258 % of control; T/C (endpoint: mean survival time, dose: 300.0 mg/kg/injection, schedule: Q08DX009 (ip), vehicle: water): 232 % of control and 217 % of control; T/C (endpoint: mean survival time, dose: 400.0 mg/kg/injection, schedule: Q01DX009 (oral), vehicle: saline): 193 % of control; T/C (endpoint: mean survival time, dose: 400.0 mg/kg/injection, schedule: Q01DX009 (oral), vehicle: water): 223 % of control; T/C (endpoint: mean survival time, dose: 400.0 mg/kg/injection, schedule: Q08DX009 (ip), vehicle: water): 285 % of control; T/C (endpoint: median survival time, dose: 65.0 mg/kg/injection, schedule: Q01DX009 (ip), vehicle: water): 167 % of control; T/C (endpoint: median survival time, dose: 100.0 mg/kg/injection, schedule: Q01DX009 (ip), vehicle: water): 196 % of control; T/C (endpoint: median survival time, dose: 108.0 mg/kg/injection, schedule: Q01DX009 (ip), vehicle: water): 176 % of control; T/C (endpoint: median survival time, dose: 200.0 mg/kg/injection, schedule: Q01DX009 (ip), vehicle: water): 223 % of control; T/C (endpoint: median survival time, dose: 400.0 mg/kg/injection, schedule: Q01DX009 (ip), vehicle: water): 354 % of control

Which results are given for `CN(Cc1cnc2nc(N)nc(N)c2n1)c1ccc(C(=O)N[C@@H](CCC(=O)O)C(=O)O)cc1`?
T/C (endpoint: mean survival time, dose: 0.6 mg/kg/injection, schedule: Q01DX009 (ip), vehicle: saline): 158 % of control; T/C (endpoint: mean survival time, dose: 1.25 mg/kg/injection, schedule: Q01DX009 (ip), vehicle: other): 150 % of control; T/C (endpoint: mean survival time, dose: 1.25 mg/kg/injection, schedule: Q01DX009 (ip), vehicle: saline): 168 % of control; T/C [1]: 112 % of control; T/C (endpoint: mean survival time, dose: 3.0 mg/kg/injection, schedule: Q01DX009 (ip), vehicle: sodium bicarbonate): 108 % of control; T/C [2]: 95 % of control; T/C (endpoint: mean survival time, dose: 5.0 mg/kg/injection, schedule: Q01DX009 (ip), vehicle: sodium bicarbonate): 94 % of control; T/C (endpoint: mean survival time, dose: 8.0 mg/kg/injection, schedule: Q01DX001 (ip), vehicle: sodium bicarbonate): 111 % of control; T/C (endpoint: mean survival time, dose: 14.0 mg/kg/injection, schedule: Q04DX003 (ip), vehicle: sodium bicarbonate): 113 % of control; T/C (endpoint: mean survival time, dose: 16.0 mg/kg/injection, schedule: Q01DX001 (ip), vehicle: sodium bicarbonate): 114 % of control; T/C (endpoint: mean survival time, dose: 19.0 mg/kg/injection, schedule: Q01DX001 (ip), vehicle: water): 108 % of control; T/C (endpoint: mean survival time, dose: 23.0 mg/kg/injection, schedule: Q04DX003 (ip), vehicle: sodium bicarbonate): 112 % of control; T/C (endpoint: mean survival time, dose: 29.0 mg/kg/injection, schedule: Q01DX001 (ip), vehicle: water): 111 % of control; T/C (endpoint: mean survival time, dose: 32.0 mg/kg/injection, schedule: Q01DX001 (ip), vehicle: sodium bicarbonate): 117 % of control; T/C (endpoint: mean survival time, dose: 39.0 mg/kg/injection, schedule: Q04DX003 (ip), vehicle: sodium bicarbonate): 115 % of control; T/C (endpoint: mean survival time, dose: 43.0 mg/kg/injection, schedule: Q01DX001 (ip), vehicle: water): 113 % of control; T/C (endpoint: mean survival time, dose: 64.0 mg/kg/injection, schedule: Q01DX001 (ip), vehicle: sodium bicarbonate): 121 % of control; T/C (endpoint: mean survival time, dose: 65.0 mg/kg/injection, schedule: Q04DX003 (ip), vehicle: sodium bicarbonate): 100 % of control; T/C (endpoint: mean survival time, dose: 128.0 mg/kg/injection, schedule: Q01DX001 (ip), vehicle: sodium bicarbonate): 109 % of control; T/C (endpoint: median survival time, dose: 0.5 mg/kg/injection, schedule: Q01DX009 (ip), vehicle: sodium bicarbonate): 102 % of control; T/C (endpoint: median survival time, dose: 1.0 mg/kg/injection, schedule: Q01DX009 (ip), vehicle: sodium bicarbonate): 113 % of control

With `COc1cc(NS(C)(=O)=O)ccc1Nc1c2ccc([N+](=O)[O-])cc2nc2c(C)cccc12` as the molecule, how does the T/C [1] read?
The T/C was 93 % of control.

What about the T/C (endpoint: mean survival time, dose: 2.5 mg/kg/injection, schedule: Q01DX009 (sc), vehicle: saline) of the same molecule?
The T/C was 93 % of control.

What about the T/C [2] of the same molecule?
Its T/C is 103 % of control.

And the T/C (endpoint: mean survival time, dose: 5.0 mg/kg/injection, schedule: Q01DX009 (sc), vehicle: saline)?
Its T/C is 96 % of control.

And the T/C (endpoint: mean survival time, dose: 10.0 mg/kg/injection, schedule: Q01DX009 (sc), vehicle: saline)?
Its T/C is 93 % of control.
